{"source": "PubChem BioAssay (NCI)", "note": "“And” between values parts separate entries of the source, which are not always exact repeats. Equal entries are not always repeated.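 All cell lines were grown in 96-well plates and treated with compound for 48 hours. Abbreviation: GI50, concentration required for 50% inhibition of growth. The concentration for full growth arrest is given as TGI.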", "data": [{"tested_on": "LOX IMVI melanoma", "assay": "growth of human tumour cells (NCI), 48 h", "units": {"TGI": "µM"}, "values": [{"molecule": "O=C(NCCNc1nccc(-c2c(-c3cccc(O)c3)nc3sccn23)n1)c1ccccc1O", "GI50": "3.03 µM", "TGI": 23.7}, {"molecule": "CCCCCCCC(=O)SCC/C=C/[C@@H]1CC(=O)NCc2cccc(n2)C2=N[C@@](C)(CS2)C(=O)N[C@@H](C(C)C)C(=O)N1", "GI50": "0.774 µM", "TGI": 4.01}, {"molecule": "COC(=O)[C@@H](C)C[C@H](Cc1ccc(F)cc1)NC(=O)c1csc([C@@H](C[C@H](C(C)C)N(C)C(=O)[C@@H](NC(=O)[C@H]2CCCCN2C)C(C)C)OC(C)=O)n1", "GI50": "0.00184 µM and 0.0095 µM", "TGI": "> 16.7"}, {"molecule": "COc1ccc2c(c1)C(=O)/C(=C/c1ccc(OCC(=O)Nc3nccs3)cc1)O2", "GI50": "0.057 µM", "TGI": 0.108}, {"molecule": "Cc1cnc(NC(=O)C(Cc2ccccc2)NC(=O)c2ccccc2)s1", "note": "(stereo unspecified)", "GI50": "6.25 µM", "TGI": 19.3}, {"molecule": "CCOC(=O)COc1cccc2c1C(=O)CCO2", "TGI": "> 100"}, {"molecule": "CSc1ccc(/C=C2\\CN(C)C/C(=C\\c3ccc(SC)cc3)C2=O)cc1", "TGI": 22.6}, {"molecule": "O[C@H]1[C@H]2c3cc4c(cc3CN3CCC(=C[C@@H]1O)[C@H]23)OCO4", "TGI": 5.06}, {"molecule": "COC(=O)[C@@]12C3=NO[C@]1(C(=O)OC)C(O[Si](C)(C)C(C)(C)C)[C@H]1OC(C)(C)O[C@H]1[C@@H]2C(OCc1ccccc1)CC3", "note": "(stereo partly specified)", "TGI": "> 100"}, {"molecule": "O=C(O)c1cc(C(=O)O)cc(N2C(=O)c3ccccc3C2=O)c1", "TGI": "> 100"}, {"molecule": "CNC(=O)c1ccccc1Nc1nc(Nc2ccc(N3CCOCC3)cc2OC)ncc1Cl", "GI50": "0.401 µM", "TGI": 3.17}, {"molecule": "COc1c2ccoc2c(/C=C/C=O)c2oc(-c3ccccc3)cc(=O)c12", "GI50": "1.48 µM", "TGI": 2.8}, {"molecule": "CCN(CC)CC(C(=O)Nc1c(C)cccc1C)/C(C)=N\\NC(=O)C[N+](C)(C)C", "note": "(stereo unspecified)", "TGI": "> 100"}, {"molecule": "O=[S@@]1Nc2ccc(Br)cc2S1", "TGI": "> 100"}, {"molecule": "CC(=O)C(CN(C(C)C)C(C)C)C(c1ccccc1)c1c(O)c2ccccc2oc1=O", "note": "(stereo unspecified)", "TGI": "> 100"}, {"molecule": "COc1ccc2c(c1)C1(C=N2)CCN(C(C)=O)CC1", "TGI": "> 100"}, {"molecule": "COc1ccc(-n2/c(=N/C(=S)N(C)C)ss/c2=N\\C(=S)N(C)C)cc1", "TGI": "> 100"}, {"molecule": "CCOC(=O)C(Sc1ccccc1)c1c(OC)cc(=O)oc1/C=[N+](/[O-])c1ccc(N(C)C)cc1", "note": "(stereo unspecified)", "TGI": 26.6}, {"molecule": "CNC(=O)c1cc(Oc2ccc3nc(NC(=O)Nc4ccc(Cl)c(C(F)(F)F)c4)sc3c2)ccn1", "GI50": "2.68 µM", "TGI": "> 100"}, {"molecule": "C/C(CCn1[nH]c(=O)ccc1=O)=N\\O", "TGI": "> 100"}, {"molecule": "COc1ccccc1NC(=O)CC(=O)n1nc(C)c(N=Nc2ccccc2C(=O)O)c1C", "TGI": "> 100"}, {"molecule": "CC(=O)N1[C@H](C(=O)O)CS[C@H]1c1ccncc1", "TGI": "> 100"}, {"molecule": "CC1(C)OC(=O)C(=Cc2ccc(O)cc2)C(=O)O1", "TGI": "> 100"}, {"molecule": "COc1ccc(C2=CSc3cc(Cl)c(C)cc3S(=O)(=O)N2C(C)=O)cc1", "GI50": "21 µM", "TGI": "> 100"}, {"molecule": "CC(=O)OC1COC(n2c(=S)n(-c3ccc(C)cc3)c(=O)c3ccccc32)C(OC(C)=O)C1OC(C)=O", "note": "(stereo unspecified)", "TGI": "> 100"}, {"molecule": "COc1cccc(NC(=O)CC(=O)n2nc(C)c(N=Nc3ccccc3)c2C)c1", "TGI": "> 100"}, {"molecule": "O=C(O)CCSC(=O)Nc1cccc(F)c1", "TGI": "> 100"}, {"molecule": "CCCCCCCCSC1=CC(=O)c2nc3ccccc3c3ccnc1c23", "GI50": "> 100 µM", "TGI": "> 100"}, {"molecule": "O=c1n(CC2CO2)c(=O)n(CC2CO2)n1CC1CO1", "note": "(stereo unspecified)", "GI50": "16.7 µM", "TGI": "> 100"}, {"molecule": "c1cc2c(cc1NC1=NCCO1)CCC2", "TGI": "> 10"}]}, {"tested_on": "IGROV1 ovarian", "assay": "growth of human tumour cells (NCI), 48 h", "units": {"GI50": "µM", "TGI": "µM"}, "values": [{"molecule": "NC(CSC(c1ccccc1)(c1ccccc1)c1ccc2c(c1)OCO2)C(=O)O", "note": "(stereo unspecified)", "GI50": 2.5, "TGI": "> 100"}, {"molecule": "C=CCc1cc(OC)c2c(c1)C(O)CC(c1ccc(OC)c(OC)c1)O2", "note": "(stereo unspecified)", "TGI": "> 100"}, {"molecule": "O=C(NCCNc1nccc(-c2c(-c3cccc(O)c3)nc3sccn23)n1)c1ccccc1O", "GI50": 4.52, "TGI": "> 73"}, {"molecule": "CCCCCCCC(=O)SCC/C=C/[C@@H]1CC(=O)NCc2cccc(n2)C2=N[C@@](C)(CS2)C(=O)N[C@@H](C(C)C)C(=O)N1", "GI50": 0.224, "TGI": 15.2}, {"molecule": "CC(C)=CCCc1c(C)ccc2c1C(=O)C(=O)C(C(C)C)=C2", "TGI": "> 22"}, {"molecule": "COC(=O)[C@@H](C)C[C@H](Cc1ccc(F)cc1)NC(=O)c1csc([C@@H](C[C@H](C(C)C)N(C)C(=O)[C@@H](NC(=O)[C@H]2CCCCN2C)C(C)C)OC(C)=O)n1", "TGI": "> 16.7"}, {"molecule": "COc1ccc2c(c1)C(=O)/C(=C/c1ccc(OCC(=O)Nc3nccs3)cc1)O2", "GI50": 0.0169, "TGI": 0.036}, {"molecule": "CCOC(=O)COc1cccc2c1C(=O)CCO2", "TGI": "> 100"}, {"molecule": "CSc1ccc(/C=C2\\CN(C)C/C(=C\\c3ccc(SC)cc3)C2=O)cc1", "TGI": "> 100"}, {"molecule": "Nc1ccc(C(=O)N/C(=C\\c2ccc3c(c2)OCO3)c2nc3[nH]c(=S)[nH]c(=O)c3[nH]2)cc1", "TGI": "> 100"}, {"molecule": "O[C@H]1[C@H]2c3cc4c(cc3CN3CCC(=C[C@@H]1O)[C@H]23)OCO4", "TGI": 0.874}, {"molecule": "COC(=O)[C@@]12C3=NO[C@]1(C(=O)OC)C(O[Si](C)(C)C(C)(C)C)[C@H]1OC(C)(C)O[C@H]1[C@@H]2C(OCc1ccccc1)CC3", "note": "(stereo partly specified)", "TGI": "> 100"}, {"molecule": "O=C(O)c1cc(C(=O)O)cc(N2C(=O)c3ccccc3C2=O)c1", "TGI": "> 100"}, {"molecule": "CNC(=O)c1ccccc1Nc1nc(Nc2ccc(N3CCOCC3)cc2OC)ncc1Cl", "GI50": 0.277, "TGI": 2.15}, {"molecule": "COc1c2ccoc2c(/C=C/C=O)c2oc(-c3ccccc3)cc(=O)c12", "GI50": 17.5, "TGI": "> 100"}, {"molecule": "CCN(CC)CC(C(=O)Nc1c(C)cccc1C)/C(C)=N\\NC(=O)C[N+](C)(C)C", "note": "(stereo unspecified)", "TGI": "> 100"}, {"molecule": "O=[S@@]1Nc2ccc(Br)cc2S1", "TGI": "> 100"}, {"molecule": "CC(=O)C(CN(C(C)C)C(C)C)C(c1ccccc1)c1c(O)c2ccccc2oc1=O", "note": "(stereo unspecified)", "TGI": "> 100"}, {"molecule": "COc1ccc2c(c1)C1(C=N2)CCN(C(C)=O)CC1", "TGI": "> 100"}, {"molecule": "O=C1NC2(CCCCC2)C2CCCCC(O)C12", "note": "(stereo unspecified)", "TGI": "> 100"}, {"molecule": "COc1ccc(-n2/c(=N/C(=S)N(C)C)ss/c2=N\\C(=S)N(C)C)cc1", "TGI": "> 100"}, {"molecule": "CCOC(=O)C1=C(C)CC2C(=O)OC(=O)C2C1(C)C", "note": "(stereo unspecified)", "TGI": "> 100"}, {"molecule": "Oc1ccc(Cl)cc1-c1cc(-c2ccccc2Cl)[nH]n1", "GI50": 1.66, "TGI": "> 100"}, {"molecule": "CCOC(=O)C(Sc1ccccc1)c1c(OC)cc(=O)oc1/C=[N+](/[O-])c1ccc(N(C)C)cc1", "note": "(stereo unspecified)", "TGI": "> 100"}, {"molecule": "CNC(=O)c1cc(Oc2ccc3nc(NC(=O)Nc4ccc(Cl)c(C(F)(F)F)c4)sc3c2)ccn1", "GI50": 2.02, "TGI": 5.12}, {"molecule": "C/C(CCn1[nH]c(=O)ccc1=O)=N\\O", "TGI": "> 100"}, {"molecule": "COc1ccccc1NC(=O)CC(=O)n1nc(C)c(N=Nc2ccccc2C(=O)O)c1C", "TGI": "> 100"}, {"molecule": "CC(=O)N1[C@H](C(=O)O)CS[C@H]1c1ccncc1", "TGI": "> 100"}, {"molecule": "CC1(C)OC(=O)C(=Cc2ccc(O)cc2)C(=O)O1", "TGI": "> 100"}, {"molecule": "COc1ccc(C2=CSc3cc(Cl)c(C)cc3S(=O)(=O)N2C(C)=O)cc1", "GI50": 36.2, "TGI": "> 100"}, {"molecule": "CC(=O)OC1COC(n2c(=S)n(-c3ccc(C)cc3)c(=O)c3ccccc32)C(OC(C)=O)C1OC(C)=O", "note": "(stereo unspecified)", "TGI": "> 100"}, {"molecule": "COc1cccc(NC(=O)CC(=O)n2nc(C)c(N=Nc3ccccc3)c2C)c1", "TGI": "> 100"}, {"molecule": "CCCCCCCCSC1=CC(=O)c2nc3ccccc3c3ccnc1c23", "GI50": "> 100", "TGI": "> 100"}, {"molecule": "CCNC1C2(CCCCC2)NC(=O)C12CCCCC2", "note": "(stereo unspecified)", "TGI": "> 100"}, {"molecule": "O=c1n(CC2CO2)c(=O)n(CC2CO2)n1CC1CO1", "note": "(stereo unspecified)", "GI50": 13.2, "TGI": 41.1}, {"molecule": "c1cc2c(cc1NC1=NCCO1)CCC2", "TGI": "> 10"}]}, {"tested_on": "CCRF-CEM leukemia", "assay": "growth of human tumour cells (NCI), 48 h", "units": {"TGI": "µM"}, "values": [{"molecule": "NC(CSC(c1ccccc1)(c1ccccc1)c1ccc2c(c1)OCO2)C(=O)O", "note": "(stereo unspecified)", "GI50": "0.306 µM", "TGI": "> 41.5"}, {"molecule": "C=CCc1cc(OC)c2c(c1)C(O)CC(c1ccc(OC)c(OC)c1)O2", "note": "(stereo unspecified)", "TGI": "> 100"}, {"molecule": "O=C(NCCNc1nccc(-c2c(-c3cccc(O)c3)nc3sccn23)n1)c1ccccc1O", "GI50": "1.21 µM", "TGI": 19.4}, {"molecule": "CCCCCCCC(=O)SCC/C=C/[C@@H]1CC(=O)NCc2cccc(n2)C2=N[C@@](C)(CS2)C(=O)N[C@@H](C(C)C)C(=O)N1", "GI50": "1.47 µM", "TGI": "> 33.3"}, {"molecule": "CC(C)=CCCc1c(C)ccc2c1C(=O)C(=O)C(C(C)C)=C2", "TGI": 1.9}, {"molecule": "COC(=O)[C@@H](C)C[C@H](Cc1ccc(F)cc1)NC(=O)c1csc([C@@H](C[C@H](C(C)C)N(C)C(=O)[C@@H](NC(=O)[C@H]2CCCCN2C)C(C)C)OC(C)=O)n1", "GI50": "0.000973 µM and 0.00639 µM", "TGI": "> 16.7"}, {"molecule": "COc1ccc2c(c1)C(=O)/C(=C/c1ccc(OCC(=O)Nc3nccs3)cc1)O2", "GI50": "0.183 µM"}, {"molecule": "Cc1cnc(NC(=O)C(Cc2ccccc2)NC(=O)c2ccccc2)s1", "note": "(stereo unspecified)", "GI50": "34.7 µM", "TGI": "> 100"}, {"molecule": "CCOC(=O)COc1cccc2c1C(=O)CCO2", "TGI": "> 100"}, {"molecule": "CSc1ccc(/C=C2\\CN(C)C/C(=C\\c3ccc(SC)cc3)C2=O)cc1", "TGI": "> 100"}, {"molecule": "Nc1ccc(C(=O)N/C(=C\\c2ccc3c(c2)OCO3)c2nc3[nH]c(=S)[nH]c(=O)c3[nH]2)cc1", "TGI": "> 100"}, {"molecule": "O[C@H]1[C@H]2c3cc4c(cc3CN3CCC(=C[C@@H]1O)[C@H]23)OCO4", "TGI": 7.51}, {"molecule": "COC(=O)[C@@]12C3=NO[C@]1(C(=O)OC)C(O[Si](C)(C)C(C)(C)C)[C@H]1OC(C)(C)O[C@H]1[C@@H]2C(OCc1ccccc1)CC3", "note": "(stereo partly specified)", "TGI": "> 100"}]}]}
